Assay results taken from patent US9249453B2, “Method for identifying a malodor inhibitor” (Kao Corporation, priority 2011, dated 2016).
“Also recorded” adds a separate entry of the source.

Assays:
OR2W1 [1] = target: T1, OR2W1 (Homo sapiens, UniProt Q9Y3N9); assay: Luciferase reporter assay: odorant response of OR2W1 expressed in HEK293 cells; type: cell-based; settings: for response of olfactory receptor at different concentration: 0, 3, 10, 30, 100, 300, and 1000 μM odorant, OR2W1, FIG. 2/3
T1 construct: expressed in transfected cells; host or cells: HEK293
T1 sequence (Q9Y3N9 1-320): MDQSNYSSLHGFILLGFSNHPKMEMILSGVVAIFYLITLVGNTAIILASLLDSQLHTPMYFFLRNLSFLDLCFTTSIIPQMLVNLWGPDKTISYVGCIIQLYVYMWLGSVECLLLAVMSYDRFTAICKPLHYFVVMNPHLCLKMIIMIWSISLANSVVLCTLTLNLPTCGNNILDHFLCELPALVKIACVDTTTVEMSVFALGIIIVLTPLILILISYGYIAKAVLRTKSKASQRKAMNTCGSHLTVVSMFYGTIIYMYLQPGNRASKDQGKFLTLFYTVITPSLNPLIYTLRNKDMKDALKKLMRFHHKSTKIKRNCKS
Method: (§1) Each of the 369 types of human olfactory receptors was expressed in HEK293 cells. A reaction solution having a composition shown in Table 1 was prepared on a clean bench, and left to stand for 15 minutes. The solution was dispensed to each well of a 96-well plate (BD). Subsequently, HEK293 cells (100 μL, 3×10^5 cells/cm^2) were seeded in each well and cultured for 24 hours in an incubator at 37° C. and under 5% CO2 conditions.
(§2) The olfactory receptor expressed in HEK293 cells activates adenylate cyclase with the aid of Gαs present in cells, to thereby increase intracellular cAMP level. In this study, odorant response was measured by a luciferase reporter gene assay which monitored the intracellular cAMP level as the luminescence value derived from a firefly luciferase gene (fluc2P-CRE-hygro). Also, a Renilla luciferase gene fused downstream of a CMV promoter (hRluc-CMV) was also transfected to HEK293 cells as an internal standard to correct errors in gene transfer efficiency and number of cells.
(§3) The culture medium was removed from the culture plate produced in (3) above, and a solution (75 μL) containing an odorant substance (1 mM skatole) in CD293 medium (Invitrogen) was added to each well. […] Luciferase activity was measured by means of a Dual-Glo™ luciferase assay system (promega) according to an instruction manual thereof. The luminescence value derived from firefly luciferase induced by odorant stimulation was divided by the luminescence value of cells which were not stimulated with odorants. […]
(§4) In a manner similar to that employed in Example 1, each of olfactory receptor OR2W1 (SEQ ID NO: 2), OR5K1 (SEQ ID NO: 4), OR5P3 (SEQ ID NO: 6), and OR8H1 (SEQ ID NO: 8) was expressed with RTP1S mutant (SEQ ID NO: 12) in HEK293 cells. The response of each receptor to skatole (0, 3, 10, 30, 100, 300, and 1000 μM) was determined.
(§5) In a manner similar to that employed in Example 2, the response of each olfactory receptor to skatole and indole (each 0, 3, 10, 30, 100, 300, and 1000 μM) was determined.

OR5K1 [2] = target: T2, OR5K1 (Homo sapiens, UniProt Q8NHB7); assay: Luciferase reporter assay: odorant response of OR5K1 expressed in HEK293 cells; type: cell-based; settings: for response of olfactory receptor at different concentration: 0, 3, 10, 30, 100, 300, and 1000 μM odorant, OR5K1, FIG. 2/3
T2 construct: expressed in transfected cells; host or cells: HEK293
T2 sequence (Q8NHB7 1-308): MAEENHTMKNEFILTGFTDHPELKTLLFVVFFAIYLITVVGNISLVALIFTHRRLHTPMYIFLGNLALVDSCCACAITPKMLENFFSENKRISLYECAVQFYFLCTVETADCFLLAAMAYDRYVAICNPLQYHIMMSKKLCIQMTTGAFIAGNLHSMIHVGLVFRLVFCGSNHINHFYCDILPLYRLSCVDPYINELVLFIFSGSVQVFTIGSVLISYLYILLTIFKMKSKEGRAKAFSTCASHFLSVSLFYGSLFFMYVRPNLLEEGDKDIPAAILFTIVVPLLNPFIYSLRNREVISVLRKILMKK
Method: as §1, §2, §3, §4, §5

OR5P3 [3] = target: T3, OR5P3 (Homo sapiens, UniProt Q8WZ94); assay: Luciferase reporter assay: odorant response of OR5P3 expressed in HEK293 cells; type: cell-based; settings: for response of olfactory receptor at different concentration: 0, 3, 10, 30, 100, 300, and 1000 μM odorant, OR5P3, FIG. 2/3
T3 construct: expressed in transfected cells; host or cells: HEK293
T3 sequence (Q8WZ94 1-311): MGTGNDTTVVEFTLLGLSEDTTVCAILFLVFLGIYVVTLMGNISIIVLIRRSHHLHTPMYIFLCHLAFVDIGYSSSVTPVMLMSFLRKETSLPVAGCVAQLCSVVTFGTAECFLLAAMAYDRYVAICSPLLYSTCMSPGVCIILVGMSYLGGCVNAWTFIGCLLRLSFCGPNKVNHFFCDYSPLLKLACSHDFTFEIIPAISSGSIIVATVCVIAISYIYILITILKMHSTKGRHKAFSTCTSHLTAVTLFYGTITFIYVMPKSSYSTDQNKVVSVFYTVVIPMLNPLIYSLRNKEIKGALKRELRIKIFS
Method: as §1, §2, §3, §4, §5

OR8H1 [4] = target: T4, OR8H1 (Homo sapiens, UniProt Q8NGG4); assay: Luciferase reporter assay: odorant response of OR8H1 expressed in HEK293 cells; type: cell-based; settings: for response of olfactory receptor at different concentration: 0, 3, 10, 30, 100, 300, and 1000 μM odorant, OR8H1, FIG. 2/3
T4 construct: expressed in transfected cells; host or cells: HEK293
T4 sequence (Q8NGG4 1-311): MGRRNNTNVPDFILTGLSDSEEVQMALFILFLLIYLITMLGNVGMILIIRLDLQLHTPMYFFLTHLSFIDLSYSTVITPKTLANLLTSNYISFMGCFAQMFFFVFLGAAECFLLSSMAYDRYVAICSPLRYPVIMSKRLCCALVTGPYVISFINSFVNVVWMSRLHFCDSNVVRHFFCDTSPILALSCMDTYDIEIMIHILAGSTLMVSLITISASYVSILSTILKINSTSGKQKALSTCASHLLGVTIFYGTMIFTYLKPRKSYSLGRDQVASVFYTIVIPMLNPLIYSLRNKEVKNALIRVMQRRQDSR
Method: as §1, §2, §3, §4, §5

OR2W1 [5] = target: T1, OR2W1; assay: Luciferase reporter assay: suppression of the skatole response of OR2W1 expressed in HEK293 cells; type: cell-based; settings: 4 h; test substance 100 μM mixed with 300 μM skatole, HEK293 cells expressing OR2W1; read-out: Inhibition rate 2W1
Method: as §1, with “A” for “Each of the 369 types of human olfactory receptors was expressed in HEK293 cells. A”
as §2
(§6) Cell culturing was performed for four hours in a CO2-incubator, whereby the luciferase gene sufficiently expressed in the cells. Luciferase activity was measured by means of a Dual-Glo™ luciferase assay system (promega) according to an instruction manual thereof. The luminescence value derived from firefly luciferase induced by odorant stimulation was divided by the luminescence value of cells which were not stimulated with odorants. The thus-obtained—called “fold increase”—was employed as an index for response intensity.
(§7) The response inhibition rate of a test substance was calculated as follows. Firstly, luminescence value derived from firefly luciferase induced by stimulation with skatole (X), and luminescence value in cells which expressed the same receptor but were not stimulated with skatole (Y) were determined. By subtracting Y from X, the receptor activity by stimulation with skatole alone (X−Y) was determined. Similarly, the luminescence value induced by stimulation with a mixture of skatole and a test substance (Z) was determined. Through subtracting Y (the luminescence value in cells which expressed the same receptor but were not stimulated with skatole) from Z, the receptor activity (Z−Y) by stimulation with a mixture of skatole and the test substance was obtained. From the thus-obtained receptor activity by stimulation with skatole alone (X−Y) and the receptor activity in the presence of a test material (Z−Y), the response inhibition rate of the test substance was calculated by the following equation: Inhibition rate (%)={1−(Z−Y)/(X−Y)}×100.
(§8) In each case, multiple independent experiments were performed in duplicate, and the average of each experiment was used.

OR5K1 [6] = target: T2, OR5K1; assay: Luciferase reporter assay: suppression of the skatole response of OR5K1 expressed in HEK293 cells; type: cell-based; settings: 4 h; test substance 100 μM mixed with 300 μM skatole, HEK293 cells expressing OR5K1; read-out: Inhibition rate 5K1
Method: as §1, with “A” for “Each of the 369 types of human olfactory receptors was expressed in HEK293 cells. A”
as §2, §6, §7, §8

OR5P3 [7] = target: T3, OR5P3; assay: Luciferase reporter assay: suppression of the skatole response of OR5P3 expressed in HEK293 cells; type: cell-based; settings: test substance 100 μM mixed with 300 μM skatole, HEK293 cells expressing OR5P3
Method: as §1, with “A” for “Each of the 369 types of human olfactory receptors was expressed in HEK293 cells. A”
as §2, §6, §7, §8

OR8H1 [8] = target: T4, OR8H1; assay: Luciferase reporter assay: suppression of the skatole response of OR8H1 expressed in HEK293 cells; type: cell-based; settings: 4 h; test substance 100 μM mixed with 300 μM skatole, HEK293 cells expressing OR8H1; read-out: Inhibition rate 8H1
Method: as §1, with “A” for “Each of the 369 types of human olfactory receptors was expressed in HEK293 cells. A”
as §2, §6, §7, §8

[9] = Sensory test by panelists: suppression of skatole odor; type: in vivo; settings: Example 6: test substance diluted by 1% with propylene glycol, n=3, FIG. 5
Method: A cotton ball was put into a glass bottle (Hakuyo. […] The glass bottle was left to stand for one night at room temperature, to thereby sufficiently evaporate the odorant molecule. The sensory test was performed by four panelists. In the case where skatole alone was added to a glass bottle, the odor intensity was rated to 5. Then, the malodor intensity in the case where skatole and a test substance were added was evaluated with a rating of 0 to 10 (by 0.5) (i.e., 20 ratings) In order to investigate specificity of malodor suppressing effect of a test substance identified in Example 4, the sensory test was also performed with hexanoic acid, a malodorous compound but structurally differs from skatole. In the experiment, hexanoic acid diluted by 1% with propylene glycol was used as a malodorous compound, and methyl dihydrojasmonate diluted by 1% with propylene glycol was used as a test substance.

[10] = Sensory test by panelists: suppression of hexanoic acid odor; type: in vivo; settings: Example 6: hexanoic acid 1% and test substance 1% in propylene glycol, n=3, FIG. 5
Method: A cotton ball was put into a glass bottle (Hakuyo. Glass No. 11, capacity: 110 mL), and skatole diluted by 0.001% with propylene glycol (20 μL) and a test substance also diluted by 0.001% (20 μL) were added to the cotton ball. The glass bottle was left to stand for one night at room temperature, to thereby sufficiently evaporate the odorant molecule. The sensory test was performed by four panelists. In the case where skatole alone was added to a glass bottle, the odor intensity was rated to 5. Then, the malodor intensity in the case where skatole and a test substance were added was evaluated with a rating of 0 to 10 (by 0.5) (i.e., 20 ratings) In order to investigate specificity of malodor suppressing effect of a test substance identified in Example 4, the sensory test was also performed with hexanoic acid, a malodorous compound but structurally differs from skatole. In the experiment, hexanoic acid diluted by 1% with propylene glycol was used as a malodorous compound, and methyl dihydrojasmonate diluted by 1% with propylene glycol was used as a test substance.

| SMILES | response of olfactory receptor at different concentration (OR2W1 [1]) | response of olfactory receptor (fold increase) (OR2W1 [1]; 1 mM odorant, OR2W1, FIG. 1) | response of olfactory receptor at different concentration (OR5K1 [2]) | response of olfactory receptor (fold increase) (OR5K1 [2]; 1 mM odorant, OR5K1, FIG. 1) | response of olfactory receptor at different concentration (OR5P3 [3]) | response of olfactory receptor (fold increase) (OR5P3 [3]; 1 mM odorant, OR5P3, FIG. 1) | response of olfactory receptor at different concentration (OR8H1 [4]) | response of olfactory receptor (fold increase) (OR8H1 [4]; 1 mM odorant, OR8H1, FIG. 1) | inhibition at 100 µM (OR2W1 [5]) [%] | inhibition at 100 µM (OR5K1 [6]) [%] | Inhibition rate 5P3 (OR5P3 [7]) | inhibition at 100 µM (OR8H1 [8]) [%] | suppression effect on skatole odor [9] | suppression effect on hexanoic acid odor [10] |
| --- | --- | --- | --- | --- | --- | --- | --- | --- | --- | --- | --- | --- | --- | --- |
| Cc1c[nH]c2ccccc12 [skatole] | dose-dependent response; also recorded: exhibited a response | exhibited response | dose-dependent response; also recorded: exhibited a response | exhibited response | dose-dependent response; also recorded: exhibited a response | exhibited response | dose-dependent response; also recorded: exhibited a response | exhibited response | – | – | – | – | – | – |
| CCCCCC1C(=O)CCC1CC(=O)OC (stereo not drawn) [methyl dihydrojasmonate, Methyl 2-penthyl-3-oxocyclopent-1-yl acetate] | – | – | – | – | – | – | – | – | 50 to 80 | < 20 | B (B >50%) | 50 to 80 | suppressed skatole odor | did not suppress hexanoic acid odor |
| c1ccc2[nH]ccc2c1 [indole] | exhibited a response | – | exhibited a response | – | exhibited a response | – | exhibited a response | – | – | – | – | – | – | – |
